Data set [1] is described as follows: Microsome stability assay, human liver microsomes. The following applies: 1 μM compound, 0.5 mg/mL microsomal protein; for microsomal CLint at 1 μM / half-life at 1 μM / microsomal CLint at 1 h, 1 µM / half-life at 1 h, 1 µM: human, human liver microsomes, pooled, NADPH, 37° C.; for microsomal CLint at 1 μM / microsomal CLint at 1 h, 1 µM: read-out: Microsome Stability Human liver microsomes Cl; for half-life at 1 μM / half-life at 1 h, 1 µM: read-out: Microsome Stability Human liver microsomes T½. Type of data set: in vitro ADME. In short, it runs like this:
(§1)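 Compound at 1 μM incubated at 37° C with pooled human or mouse liver microsomes (0.5 mg/mL protein) plus NADPH regenerating system, sampled at 0–60 min; a 60-min no-NADPH incubation also included. Single replicate; LC/MS/MS disappearance from analyte/internal standard peak area ratios, without standard curve.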
In general terms: Liver microsomes are a subcellular fraction often used to study metabolism.

A short description of data set [2]: Microsome stability assay, mouse liver microsomes. The following applies: 1 μM compound, 0.5 mg/mL microsomal protein; for microsomal CLint at 1 μM / half-life at 1 μM / microsomal CLint at 1 h, 1 µM / half-life at 1 h, 1 µM: mouse, mouse liver microsomes, pooled, NADPH, 37° C.; for microsomal CLint at 1 μM / microsomal CLint at 1 h, 1 µM: read-out: Microsome Stability Mouse liver microsomes Cl; for half-life at 1 μM / half-life at 1 h, 1 µM: read-out: Microsome Stability Mouse liver microsomes T½. In kind it is in vitro ADME. A digest of the protocol:
as §1

Data set [3] has as its target HSD17B4 (Homo sapiens (Human), UniProt P51659). Kind of data set: HSD17B4 enzymatic blocking assay. Type of data set: biochemical. As to conditions: 23.46 μM Estradiol, 1500 μM NAD; read-out: Inhibition of HSD17B4 IC50. The protocol: To screen compounds of the disclosure for their ability to block HSD17B4 function, an enzymatic blocking assay was performed. For the assay, HSD17B4 activity was measured by detecting NADH formation from oxidation of Estradiol using a NADH Glo luminescence assay (Promega, #Cat. No. G9062). Compounds of the disclosure were evaluated in a dose titration assay where the compounds were titrated at 10-point dose curve using an Echo-555 liquid handling dispenser. HSD17B4 (SEQ ID NO: 4, expressed in mammalian cells) was added at a final concentration of 2.5 ng/μL in a buffer containing 50 mM Tris-HCl, pH 7.5, Pluronic F-127 0.05%, Tween20 0.01%, BSA 0.01%, into a low volume white 384-well assay plate. Compounds were incubated with the enzyme for 15 min at 20° C. The assay reaction was then initiated by addition of 23.46 μM Estradiol substrate (Sigma, catalog #E2758-250MG, CAS: 50-28-2) and 1500 μM NAD co-factor, and the reaction mixture was incubated for 45 min at 20° C. DMSO at a concentration of 0.5% was used as a negative control and a ‘no substrate’ control was used a positive control in the assay. Detection reagent was then added as per manufacturer's instructions, and the plate was subsequently incubated in the dark for 1 hour at room temperature, NADH generated was detected in the luminescence mode on the Envision Perkin Elmer plate reader. The IC50 values were determined using Dotmatics analysis software.

Data set [4] deals with HSD17B1 (Homo sapiens (Human), UniProt P14061). The data set is described as follows: HSD17B1 enzymatic blocking assay. In kind it is biochemical. As to conditions: 25 μM Estradiol, 500 μM NAD; read-out: Inhibition of HSD17B1 IC50. A digest of the protocol:
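Activity followed as NADH formed on estradiol oxidation, read by NADH-Glo luminescence after 1 h detection in the dark at room temperature. Compounds preincubated with enzyme 30 min at room temperature; 0.5% DMSO and no-substrate controls. IC50 fitted from luminescence.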

The target of data set [5] is HSD17B10 (Homo sapiens (Human), UniProt Q99714). The data set is described as follows: HSD17B10 enzymatic blocking assay. Type of data set: biochemical. The following applies: 25 μM Estradiol, 500 μM NAD; read-out: Inhibition of HSD17B10 IC50. Here is the method: To screen compounds of the disclosure for their ability to block HSD17B10 function, an enzymatic blocking assay was performed. For the assay, HSD17B10 activity was measured by detecting NADH formation from oxidation of Estradiol using a NADH Glo luminescence assay (Promega, #Cat. No. G9062). Compounds of the disclosure were evaluated in a dose titration assay where the compounds were titrated at 10-point dose curve using an Echo-555 liquid handling dispenser. HSD17B10 (Seq. ID NO: 5, expressed in mammalian cells) was added at a final concentration of 31.25 ng/well in a buffer containing 0.2M Tris-HCl, pH 7.5, into a low volume white 384-well assay plate. Compounds were incubated with the enzyme for 30 minutes at room temperature. The assay reaction was then initiated by addition of 25 μM Estradiol substrate (Sigma, catalog #E2758-250MG, CAS: 50-28-2) and 500 μM NAD co-factor, and the reaction mixture was incubated for 3 hours at room temperature. DMSO at a concentration of 0.5% was used as a negative control and a ‘no substrate’ control was used a positive control in the assay. Detection reagent was then added as per manufacturer's instructions, and the plate was subsequently incubated in the dark for 1 hour at room temperature, NADH generated was detected in the luminescence mode on the Envision Perkin Elmer plate reader. The IC50 values were determined using Dotmatics analysis software.
Sequence of HSD17B10 (Q99714 other isoform, or with tags, fused parts or gaps): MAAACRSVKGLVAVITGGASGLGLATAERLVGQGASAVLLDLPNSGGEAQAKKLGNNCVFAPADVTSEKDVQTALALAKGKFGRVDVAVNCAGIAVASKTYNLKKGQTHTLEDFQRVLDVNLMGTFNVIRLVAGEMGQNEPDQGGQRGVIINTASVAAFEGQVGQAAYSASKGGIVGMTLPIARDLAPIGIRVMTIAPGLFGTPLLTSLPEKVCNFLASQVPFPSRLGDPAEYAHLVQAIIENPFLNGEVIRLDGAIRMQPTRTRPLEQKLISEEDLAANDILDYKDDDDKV

Data set [6] addresses HSD17B2 (Homo sapiens (Human), UniProt P37059). The data set is described as follows: HSD17B2 enzymatic blocking assay. In kind it is biochemical. As to conditions: 1.8 μM Estradiol, 650 μM NAD; read-out: Inhibition of HSD17B2 IC50. In short, it runs like this:
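Mammalian-expressed enzyme at 2 ng/μL in 50 mM Tris-HCl pH 7.5 with detergents/BSA, preincubated 15 min at 20° C. with compound (10-point titration). Reaction with 1.8 μM estradiol and 650 μM NAD ran 45 min at 20° C.; NADH measured by NADH-Glo luminescence and IC50 derived.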

In data set [7] the target is HSD17B13 (Homo sapiens (Human), UniProt Q7Z5P4). The data set is described as follows: HSD17B13 enzymatic inhibition assay (150 nM or 50 nM HSD17B13). Type of data set: biochemical. The following applies: 50 nM HSD17B13; read-out: Inhibition of 50 nM of HSD17B13 IC50.
Sequence of HSD17B13 (Q7Z5P4 other isoform, or with tags, fused parts or gaps): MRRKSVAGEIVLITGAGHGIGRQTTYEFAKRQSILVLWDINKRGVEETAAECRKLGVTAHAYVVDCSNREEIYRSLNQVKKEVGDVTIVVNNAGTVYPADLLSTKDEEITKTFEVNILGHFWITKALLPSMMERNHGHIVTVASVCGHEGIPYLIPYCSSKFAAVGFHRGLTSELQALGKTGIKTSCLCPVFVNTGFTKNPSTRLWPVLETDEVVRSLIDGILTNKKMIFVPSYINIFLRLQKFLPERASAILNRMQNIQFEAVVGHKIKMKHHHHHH

Some results are limits rather than exact numbers.

7 compounds from patent US11957687B2 (REGENERON PHARMACEUTICALS, INC., priority 2019, dated 2024) can be followed below.

Sequence of HSD17B2 (P37059 other isoform, or with tags, fused parts or gaps): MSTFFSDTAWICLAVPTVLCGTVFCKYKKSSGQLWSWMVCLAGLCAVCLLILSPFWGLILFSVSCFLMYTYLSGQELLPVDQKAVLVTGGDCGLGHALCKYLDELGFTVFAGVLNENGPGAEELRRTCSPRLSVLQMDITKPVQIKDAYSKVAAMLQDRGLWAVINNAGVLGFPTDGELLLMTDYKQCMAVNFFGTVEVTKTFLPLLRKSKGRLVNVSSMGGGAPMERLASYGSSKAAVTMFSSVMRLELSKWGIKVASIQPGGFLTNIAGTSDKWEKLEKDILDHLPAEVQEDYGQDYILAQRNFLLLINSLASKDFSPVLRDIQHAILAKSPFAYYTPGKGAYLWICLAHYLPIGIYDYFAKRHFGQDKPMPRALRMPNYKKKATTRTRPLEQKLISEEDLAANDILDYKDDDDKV
Sequence of HSD17B1 (P14061 other isoform, or with tags, fused parts or gaps): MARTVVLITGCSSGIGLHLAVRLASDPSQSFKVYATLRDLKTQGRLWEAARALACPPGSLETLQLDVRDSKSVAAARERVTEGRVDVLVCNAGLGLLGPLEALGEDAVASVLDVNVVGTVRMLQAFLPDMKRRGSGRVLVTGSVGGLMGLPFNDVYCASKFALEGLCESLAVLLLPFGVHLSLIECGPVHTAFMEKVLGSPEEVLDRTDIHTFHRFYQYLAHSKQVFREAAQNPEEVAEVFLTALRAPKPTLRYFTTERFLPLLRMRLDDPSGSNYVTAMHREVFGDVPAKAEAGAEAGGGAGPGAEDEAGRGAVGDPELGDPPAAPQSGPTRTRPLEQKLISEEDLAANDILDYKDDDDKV
Sequence of HSD17B4 (P51659 other isoform, or with tags, fused parts or gaps): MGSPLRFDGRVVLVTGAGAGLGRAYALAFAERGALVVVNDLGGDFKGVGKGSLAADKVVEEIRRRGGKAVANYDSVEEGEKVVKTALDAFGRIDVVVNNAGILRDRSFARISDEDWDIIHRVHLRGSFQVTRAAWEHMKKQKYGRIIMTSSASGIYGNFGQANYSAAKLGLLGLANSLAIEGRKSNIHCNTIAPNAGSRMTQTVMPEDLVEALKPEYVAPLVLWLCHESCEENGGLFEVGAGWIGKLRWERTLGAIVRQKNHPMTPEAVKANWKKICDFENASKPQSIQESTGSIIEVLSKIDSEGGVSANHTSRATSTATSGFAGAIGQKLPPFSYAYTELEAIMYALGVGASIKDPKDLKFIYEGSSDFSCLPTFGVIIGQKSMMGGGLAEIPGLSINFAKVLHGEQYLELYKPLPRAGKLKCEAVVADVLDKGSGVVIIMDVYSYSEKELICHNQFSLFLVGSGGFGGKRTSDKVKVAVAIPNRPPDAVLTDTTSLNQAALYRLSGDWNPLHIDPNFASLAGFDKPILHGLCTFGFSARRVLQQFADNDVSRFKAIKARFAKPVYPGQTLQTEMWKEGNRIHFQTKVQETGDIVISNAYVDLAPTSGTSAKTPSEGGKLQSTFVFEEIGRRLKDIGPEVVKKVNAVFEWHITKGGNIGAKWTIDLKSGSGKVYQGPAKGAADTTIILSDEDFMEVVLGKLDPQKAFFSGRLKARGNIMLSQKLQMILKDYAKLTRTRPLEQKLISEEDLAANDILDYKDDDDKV

One may read the IC50 as the point on the concentration scale where inhibition reaches its midpoint. Regarding `O=C(NC1c2ccc(Cl)cc2Oc2cc(Cl)ccc21)c1ccc(C(F)(F)F)[nH]c1=O` [Compound 50, N-(3,6-dichloro-9H-xanthen-9-yl)-2-oxo-6-(trifluoromethyl)-1,2-dihydropyridine-3-carboxamide], the “Microsome Stability Human liver microsomes % Remaining @60 min” value in data set [1] was found to be 101.00%. The microsomal CLint at 1 μM in data set [1] and in data set [2] was under 9.6 µL/min/mg in each case. In addition, the half-life at 1 μM in data set [1] and in data set [2] was over 2.42 h throughout. The “Microsome Stability Mouse liver microsomes % Remaining @60 min” value in data set [2] is 97.70%. Moreover, the concentration for half-maximal inhibition (IC50) in data set [3] was over 100 µM; in data set [4], 4.22 µM; in data set [5], over 30 µM; in data set [6] it was 5.16 µM; in data set [7] it was 0.12 µM.

On to `O=C(NC1c2ccc(Cl)cc2Oc2cccc(Cl)c21)c1ccc(C(F)(F)F)[nH]c1=O` (centres unmarked) [Compound 51, N-(1,6-dichloro-9H-xanthen-9-yl)-2-oxo-6-(trifluoromethyl)-1,2-dihydropyridine-3-carboxamide], for which the “Microsome Stability Human liver microsomes % Remaining @60 min” value in data set [1] is reported as 44.00%. Also, the microsomal CLint at 1 h, 1 µM in data set [1] stood at 23 µL/min/mg; in data set [2], 10.4 µL/min/mg. Further, the half-life at 1 h, 1 µM came out at 1 h in data set [1] and 2.22 h in data set [2]. Also, in data set [2], the “Microsome Stability Mouse liver microsomes % Remaining @60 min” value is 73.50%. Moreover, the IC50 in data set [3] is over 100 µM; in data set [4], 4.55 µM; in data set [5] it was over 30 µM; in data set [6] it was 8.71 µM; in data set [7], 0.23 µM.

For `Cc1ccc2c(c1)Oc1cc(C)ccc1C2NC(=O)c1ccc(C(F)(F)F)[nH]c1=O` [Compound 52, N-(3,6-dimethyl-9H-xanthen-9-yl)-2-oxo-6-(trifluoromethyl)-1,2-dihydropyridine-3-carboxamide], the “Microsome Stability Human liver microsomes % Remaining @60 min” value in data set [1] is recorded as 110.00%. The microsomal CLint at 1 μM in data set [1] and in data set [2] was under 9.6 µL/min/mg in each case. Moreover, the half-life at 1 μM in data set [1] and in data set [2] was over 2.42 h each time. In data set [2], the “Microsome Stability Mouse liver microsomes % Remaining @60 min” value is 125.00%. Also, the half-maximal inhibitory concentration (IC50) in data set [3] was over 100 µM; in data set [4] it was 5.84 µM; in data set [5], over 30 µM; in data set [6] it was 8.69 µM; in data set [7] it was 0.08 µM.

Consider `Cc1ccc2c(c1)Oc1cc(Cl)ccc1C2NC(=O)c1ccc(C(F)(F)F)[nH]c1=O` (centres unmarked) [Compound 138, N-(3-chloro-6-methyl-9H-xanthen-9-yl)-2-oxo-6-(trifluoromethyl)-1,2-dihydropyridine-3-carboxamide], for which, in data set [1], the “Microsome Stability Human liver microsomes % Remaining @60 min” value came to 72.40%; the microsomal CLint at 1 h, 1 µM worked out at 17.8 µL/min/mg; the half-life at 1 h, 1 µM turned out to be 1.3 h. In data set [2], the “Microsome Stability Mouse liver microsomes % Remaining @60 min” value came out at 97.40%, the microsomal CLint at 1 μM was under 9.6 µL/min/mg and the half-life at 1 μM was over 2.42 h. Besides, the IC50 in data set [3] was over 100 µM. Further, the half-maximal inhibitory concentration (IC50) in data set [4] came to 2.07 µM. Moreover, the 50% inhibitory concentration (IC50) in data set [5] is over 30 µM. Further, in data set [6], the IC50 is 16.1 µM. The IC50 in data set [7] amounted to 0.02 µM.

In the case of `O=C(NC1c2ccccc2Oc2cc(CC(F)(F)F)ccc21)c1ccc(C(F)(F)F)[nH]c1=O` (centres unmarked) [Compound 141, 2-oxo-N-(3-(2,2,2-trifluoroethyl)-9H-xanthen-9-yl)-6-(trifluoromethyl)-1,2-dihydropyridine-3-carboxamide], the IC50 in data set [3] was 58.2 µM; in data set [4], 3.62 µM; in data set [5], over 30 µM; in data set [6] it was 7.3 µM; in data set [7] it was 0.36 µM.

In the case of `Cc1ccc2c(c1)Oc1cccc(Cl)c1C2NC(=O)c1ccc(C(F)(F)F)[nH]c1=O` (centres unmarked) [Compound 190, N-(1-chloro-6-methyl-9H-xanthen-9-yl)-2-oxo-6-(trifluoromethyl)-1,2-dihydropyridine-3-carboxamide], the “Microsome Stability Human liver microsomes % Remaining @60 min” value in data set [1] is listed as 0.62%. The microsomal CLint at 1 h, 1 µM in data set [1] stood at 172 µL/min/mg; in data set [2] it was 17.4 µL/min/mg. The half-life at 1 h, 1 µM in data set [1] is 0.135 h; in data set [2], 1.33 h. Further, the “Microsome Stability Mouse liver microsomes % Remaining @60 min” value in data set [2] is 59.10%. Besides, the concentration for half-maximal inhibition (IC50) in data set [3] was 84.5 µM; in data set [4], 3.2 µM; in data set [5] it was over 30 µM; in data set [6], 8.71 µM; in data set [7] it was 0.09 µM.

Regarding `Cc1ccc2c(c1)Oc1ccccc1C2NC(=O)c1c(C)cc(C(F)(F)F)[nH]c1=O` (centres unmarked) [Compound 198, 4-methyl-N-(3-methyl-9H-xanthen-9-yl)-2-oxo-6-(trifluoromethyl)-1,2-dihydropyridine-3-carboxamide], the IC50 in data set [3] was over 100 µM; in data set [4], over 30 µM; in data set [5] it was over 30 µM; in data set [6] it was over 100 µM; in data set [7], 0.4 µM.
